Values quoted from earlier work as cited in US9585959B2, “Robust controlled-release formulations” (CAMURUS AB, priority 2011, dated 2017).
Blank lines part the entries; values can stand above or below the molecule they belong to. *1 amine or outer side, *2 acyl side, *3 side chain or, on linkers, in order; H or OH if unused. Where a SMILES comes first, the peptide text is derived from it. Side-chain parts run from the residue outwards. [ ]: non-standard residue; d: D form. The star is where a group is joined. Ethylenediamine = C(CN[*:2])N[*:1]; Hyp = O=C(O)[C@@H]1C[C@@H](O)CN1; Phg = N[C@H](C(=O)O)c1ccccc1; CO = O=C([*:1])[*:2]; Bn = c1ccc(C*)cc1

Key:
[1] = system: somatostatin receptor subtypes sstr1,2,3 and sstr5
[2] = in vivo

Molecule: C[C@@H](O)[C@@H]1NC(=O)[C@H](CCCCN)NC(=O)[C@@H](Cc2c[nH]c3ccccc23)NC(=O)[C@H](Cc2ccccc2)NC(=O)[C@@H](NC(=O)[C@H](N)Cc2ccccc2)CSSC[C@@H](C(=O)N[C@H](CO)[C@@H](C)O)NC1=O [Octreotide, D-Phe-Cys-Phe-D-Trp-Lys-Thr-Cys-Thr-ol (2-7 disulphide bridge)]
Selectivity (SSTRs (SSTR1-SSTR5); for SSTR2 and SSTR5): high selectivity

Affinity [1]: high affinity
Molecule: NCCCC[C@@H]1NC(=O)[C@@H](Cc2c[nH]c3ccccc23)NC(=O)[C@H](c2ccccc2)NC(=O)[C@@H]2C[C@@H](OC(=O)NCCN)CN2C(=O)[C@H](Cc2ccccc2)NC(=O)[C@H](Cc2ccc(OCc3ccccc3)cc2)NC1=O [Pasireotide] (cyclo(F[Hyp]([CO-Ethylenediamine])[Phg][dW]KY(Bn)))

Molecule: Ala-Gly-Cys-Lys-Asn-Phe-Phe-Trp-Lys-Thr-Phe-Thr-Ser-Cys [SST-14]
Biological half-life [2]: 1-3 minutes | Affinity of the five SSTRs (SSTRs (SSTR1-SSTR5); SSTR1-SSTR5): equally high affinity
